Source: patent US20240262842A1, “SMALL MOLECULE INHIBITORS OF KRAS G12C MUTANT” (Merck Sharp & Dohme LLC, priority 2021, published 2024)

Target: biotinylated KRAS G12C protein (GMP-PNP loaded) and GST-tagged Ras binding domain of c-RAF (Homo sapiens, UniProt P01116, C118S/C51S/C80L/G12C)
Assay: RAS:RAF-RBD binding assay (TR-FRET)
Details: 30-minute incubation of compound with KRAS G12C before RAF-RBD; Table 4; read-out: IC50

IC50	Compound
0.085 µM	Cc1nc2c3c(c(C(F)(F)F)cc2n1C)-c1cccn2c(C(=O)c4cc(F)c(NC(=O)/C=C/CN5CC(F)C5)c(F)c4)cc(c12)CCN3C [Example 285, (E)-N-(2,6-difluoro-4-(9,10,12-trimethyl-7-(trifluoromethyl)-9,12,13,14-tetrahydroimidazo[4″,5″:5′,6′]benzo[1′,2′:2,3]azocino[4,5,6-hi]indolizine-2-carbonyl)phenyl)-4-(3-fluoroazetidin-1-yl)but-2-enamide]
0.0404 µM	Cc1nc2c3c(c(C(F)(F)F)cc2n1C)-c1cccn2c(C(=O)c4cc(F)c(NC(=O)/C=C/CN5CC6(CCOC6)C5)c(F)c4)cc(c12)CCO3 (single isomer, unassigned) [Example 284]
0.0525 µM	Cc1nc2c3c(c(C(F)(F)F)cc2n1C)-c1cccn2c(C(=O)c4cc(F)c(NC(=O)/C=C/CN5CCC5CC(C)(C)O)c(F)c4)cc(c12)CCN3C (single isomer, unassigned) [Example 299, (E)-1-(4-((2,6-difluoro-4-(9,10,12-trimethyl-7-(trifluoromethyl)-9,12,13,14-tetrahydro-imidazo[4″,5″:5′,6′]benzo-[1′,2′:2,3]azocino[4,5,6-hi]indolizine-2-carbonyl)-phenyl)amino)-4-oxobut-2-en-1-yl)-2-(2-hydroxy-2-methylpropyl)azetidin-1-ium 2,2,2-trifluoroacetate]
0.0264 µM	Cc1nc2c3c(c(C(F)(F)F)cc2n1C)-c1cccn2c(C(=O)c4cc(F)c(NC(=O)/C=C/CNC5CC(F)(F)C5)c(F)c4)cc(c12)CCO3 [Example 277, (E)-N-(4-((4-(9,10-dimethyl-7-(trifluoro-methyl)-13,14-dihydro-9H-imidazo[4″,5″:5′,6′]-benzo[1′,2′:2,3]oxocino-[4,5,6-hi]indolizine-2-carbonyl)-2,6-difluoro-phenyl)amino)-4-oxobut-2-en-1-yl)-3,3-difluoro-cyclobutan-1-aminium 2,2,2-trifluoroacetate]
0.0136 µM	CC1Cc2cc(C(=O)c3cc(F)c(NC(=O)/C=C/CN[C@H]4CCOC4)c(F)c3)n3cccc(c23)-c2c(C(F)(F)F)cc3c(ncn3C)c2O1 (single isomer, unassigned) [Example 271]
0.0038 µM	Cc1nc2c3c(c(C(F)(F)F)cc2n1C)-c1cccn2c(C(=O)c4cc(F)c(NC(=O)/C=C/CNCC5(CO)CC5)c(F)c4)cc(c12)CCO3 [Example 281, (E)-4-((4-(9,10-dimethyl-7-(trifluoromethyl)-13,14-dihydro-9H-imidazo-[4″,5″:5′,6′]benzo[1′,2′: 2,3]oxocino[4,5,6-hi]-indolizine-2-carbonyl)-2,6-difluorophenyl)-amino)-N-((1-(hydroxy-methyl)cyclopropyl)meth-yl)-4-oxobut-2-en-1-aminium 2,2,2-trifluoro-acetate]
0.0149 µM	Cc1nc2c3c(c(C(F)(F)F)cc2n1C)-c1cccn2c(C(=O)c4cc(F)c(NC(=O)/C=C/CNC5(C)COC5)c(F)c4)cc(c12)CC(C)O3 (single isomer, unassigned) [Example 272, mono((E)-2-(3,5-difluoro-4-(4-((3-methyloxetan-3-yl)ammonio)but-2-en-amido)benzoyl)-9,10,13-trimethyl-7-(trifluoro-methyl)-13,14-dihydro-9H-imidazo[4″,5″:5′,6′]-benzo[1′,2′:2,3]oxocino-[4,5,6-hi]indolizin-11-ium) mono(2,2,2-trifluoroacetate)]
0.0148 µM	Cc1nc2c3c(c(C(F)(F)F)cc2n1C)-c1cccn2c(C(=O)c4cc(F)c(NC(=O)/C(F)=C/CNC5(C)CCOCC5)c(F)c4)cc(c12)CCO3 (atropisomer, axis not shown) [Example 296, (Z)-N-(4-(9,10-dimethyl-7-(trifluoromethyl)-13,14-dihydro-9H-imidazo[4″,5″:5′,6′]benzo[1′,2′:2,3]oxocino[4,5,6-hi]indolizine-2-carbonyl)-2,6-difluorophenyl)-2-fluoro-4-((4-methyltetrahydro-2H-pyran-4-yl)amino)but-2-enamide]
0.0204 µM	Cc1nc2c3c(c(C(F)(F)F)cc2n1C)-c1cccn2c(C(=O)c4cc(F)c(NC(=O)/C=C/CN[C@@H]5CCCC(F)(F)[C@@H]5O)c(F)c4)cc(c12)CCO3 [Example 274]
0.0166 µM	COCc1nc2c3c(c(OC)cc2n1C)-c1cccn2c(C(=O)c4cc(F)c(NC(=O)/C=C/CNCC5(F)CC5)c(F)c4)cc(c12)CCN3C (atropisomer, axis not shown) [Example 287, (E)-N-(2,6-difluoro-4-(7-methoxy-10-(methoxymethyl)-9,12-dimethyl-9,12,13,14-tetrahydroimidazo[4″,5″:5′,6′]benzo[1′,2′:2,3]azocino[4,5,6-hi]indolizine-2-carbonyl)phenyl)-4-(((1-fluorocyclopropyl)methyl)amino)but-2-enamide]
0.0849 µM	COCc1nc2c3c(c(OC)cc2n1C)-c1cccn2c(C(=O)c4cc(F)c(NC(=O)/C=C/CN5CC6(CCCOC6)C5)c(F)c4)cc(c12)CCN3C (single isomer, unassigned) [Example 292, mono((E)-2-(4-((2,6-difluoro-4-(7-methoxy-10-(methoxymethyl)-9,12-dimethyl-9,12,13,14-tetra-hydroimidazo[4″,5″: 5′,6′]benzo[1′,2′:2,3]azo-cino[4,5,6-hi]indolizin-11-ium-2-carbonyl)phenyl)-amino)-4-oxobut-2-en-1-yl)-6-oxa-2-azaspiro[3.5]-nonan-2-ium) mono(2,2,2-trifluoroacetate)]
0.0117 µM	Cc1nc2c3c(c(C(F)(F)F)cc2n1C)-c1cccn2c(C(=O)c4cc(F)c(NC(=O)/C=C/[C@@H]5C[C@@H](F)CN5)c(F)c4)cc(c12)CCO3 [Example 260, (2S,4R)-2-((E)-3-((4-(9,10-dimethyl-7-(tri-fluoromethyl)-13,14-dihydro-9H-imidazo-[4″,5″:5′,6′]benzo[1′,2′: 2,3]oxocino[4,5,6-hi]-indolizine-2-carbonyl)-2,6-difluorophenyl)-amino)-3-oxoprop-1-en-1-yl)-4-fluoropyrrolidin-1-ium 2,2,2-trifluoro-acetate]
0.0257 µM	Cc1nc2c3c(c(C(F)(F)F)cc2n1C)-c1cccn2c(C(=O)c4cc(F)c(NC(=O)/C(F)=C/CN[C@@H]5CCOC5)c(F)c4)cc(c12)CCO3 (atropisomer, axis not shown) [Example 252, (R,Z)-N-(4-(9,10-dimethyl-7-(trifluoromethyl)-13,14-dihydro-9H-imidazo[4″,5″:5′,6′]benzo[1′,2′:2,3]oxocino[4,5,6-hi]indolizine-2-carbonyl)-2,6-difluorophenyl)-2-fluoro-4-((tetrahydrofuran-3-yl)amino)but-2-enamide]
0.00669 µM	Cc1nc2c3c(c(C(F)(F)F)cc2n1C)-c1cccn2c(C(=O)c4cc(F)c(NC(=O)/C=C/CN5CCC[C@@]5(C)C(C)O)c(F)c4)cc(c12)CCO3 (single isomer, unassigned) [Example 258]
0.00805 µM	Cc1nc2c3c(c(C(F)(F)F)cc2n1C)-c1cccn2c(C(=O)c4cc(F)c(NC(=O)/C=C/CNCC5(F)CC5)c(F)c4)cc(c12)CCO3 [Example 276, (E)-4-((4-(9,10-dimethyl-7-(trifluoromethyl)-13,14-dihydro-9H-imidazo-[4″,5″:5′,6′]benzo[1′,2′: 2,3]oxocino[4,5,6-hi]-indolizine-2-carbonyl)-2,6-difluorophenyl)-amino)-N-((1-fluorocyclo-propyl)methyl)-4-oxobut-2-en-1-aminium 2,2,2-trifluoroacetate]
0.0111 µM	COCc1nc2c3c(c(OC)cc2n1C)-c1cccn2c(C(=O)c4cc(F)c(NC(=O)/C=C/CNC(C)(C)C5CC5)c(F)c4)cc(c12)CCN3C [Example 290, mono((E)-2-(4-(4-((2-cyclopropylpropan-2-yl)-ammonio)but-2-enamido)-3,5-difluorobenzoyl)-7-methoxy-10-(methoxy-methyl)-9,12-dimethyl-9,12,13,14-tetrahydro-imidazo[4″,5″:5′,6′]benzo-[1′,2′:2,3]azocino[4,5,6-hi]indolizin-11-ium) mono(2,2,2-trifluoro-acetate)]
0.0142 µM	Cc1nc2c3c(c(C(F)(F)F)cc2n1C)-c1cccn2c(C(=O)c4cc(F)c(NC(=O)/C=C/CN5CCC[C@@]5(C)C(C)O)c(F)c4)cc(c12)CCO3 (single isomer, unassigned) [Example 259]

Compound	IC50
(2S)-1-((Z)-4-((4-(9,10- dimethyl-7-(trifluorometh- yl)-13,14-dihydro-9H- imidazo[4″,5″:5′,6′]benzo- [1′,2′:2,3loxocino[4,5,6- hi]indolizine-2-carbonyl)- 2,6-difluorophenyl)amino)- 3-fluoro-4-oxobut-2-en-1- yl)-2-(hydroxymethyl)- azetidin-1-ium2,2,2- trifluoroacetate [Example 262]	0.0151 µM
(Z)-N-(4-((4-(9,10-dimeth- yl-7-(trifluoromethyl)- 13,14-dihydro-9H-imid- azo[4″,5″:5′6′]benzo- [1′,2′:2,3]oxocino[4,5,6- hi]indolizine-2-carbonyl)- 2,6-difluorophenyl)amino)- 3-fluoro-4-oxobut-2-en-1- yl)-1-methylcyclopropan- 1-aminium2,2,2-trifluoro- acetate [Example 261]	0.0222 µM
Cc1nc2c3c(c(C(F)(F)F)cc2n1C)-c1cccn2c(C(=O)c4cc(F)c(NC(=O)C=CCN5CCC5CC(=O)N(C)C)c(F)c4)cc(c12)CCO3 [Example 254, mono(2-(4-((E)-4-((2S)-2-(2-(dimethylamino)-2-oxoethyl)azetidin-1-ium-1-yl)but-2-enamido)-3,5-difluorobenzoyl)-9,10-dimethyl-7-(trifluorometh-yl)-13,14-dihydro-9H-imidazo[4″,5″:5′,6′]benzo-[1′,2′:2,3]oxocino[4,5,6-hi]indolizin-11-ium) mono(2,2,2-trifluoro-acetate)]	0.0209 µM
Cc1nc2c3c(c(C(F)(F)F)cc2n1C)-c1cccn2c(C(=O)c4cc(F)c(NC(=O)/C=C/CN5CCC[C@H]5CO)c(F)c4)cc(c12)CCO3 [Example 256, mono(2-(3,5~difluoro-4-((E)-4-((2S)-2-(hydroxy-methyl)pyrrolidin-1-ium-1-yl)but-2-enamido)ben-zoyl)-9,10-dimethyl-7-(trifluoromethyl)-13,14-dihydro-9H-imidazo-[4,5″:5′,6′]benzo[1′,2′: 2,3]oxocino[4,5,6-hi]-indolizin-11-ium) mono-(2,2,2-trifluoroacetate)]	0.0047 µM
